Key:
[1] = Lipophilicity by experimental HPLC retention time; type: physicochemical; conditions: HPLC retention time as measure of lipophilicity; C18, 10 to 90% CH3CN/H2O with 0.1% FA over 25 min
Method: The ability to kill neighboring cells (i.e. bystander effect) is an important property for ADC payloads. For a payload comprising a compound of Formula I to be capable of bystander killing, membrane permeability (or transport) is required and the ability of compounds of Formula I to cross cell membranes and exert a cytotoxic effect was expected to be heavily influenced by lipophilicity.
Compounds were analyzed using an Agilent 1260 HPLC (Agilent Technologies, Inc., Santa Clara, CA) equipped with a Diode array detector and using a Phenomenex Kinetex EVO C18 150×4.6, 2.6 μm column (Phenomenex, Torrance, CA), eluting with 10 to 90% CH3CN/H2O with 0.1% FA over 25 min.

[2] = tested on: tumour cells (at least 4 of a panel of ovarian, breast, lung, pancreatic, placenta, colon cell lines); test: In vitro cytotoxicity (cell proliferation, CellTiter-Glo), average over tumour cell line panel; type: cell-based; conditions: average pIC50 on all cell lines tested; 5 nights incubation; CellTiter-Glo
Method: The ability of representative compounds of Formula I to inhibit proliferation of tumour cells in vitro was evaluated in at least 4 of the following cell lines: OVCAR-3 (ovarian, ATCC), SKOV-3 (ovarian, ATCC), IGROV-1 (ovarian, national research council of Canada (NRC)), OV-90 (ovarian, ATCC), OVKATE (Ovarian, Japanese Collection of Research Bioresources (JCRB) (JCRB1044)), JIMT-1 (breast, NRC), SK-BR-3 (breast, ATCC), T-47D (breast, ATCC), ZR-75-1 (breast, ATCC), MDA-MB-468 (breast, AddexBio), BT-20 (breast, ATCC), BT-474 (breast, NRC), MDA-MB-175 (breast, AddexBio), A549 (lung, collaborator), NCI-H226 (lung, NRC), NCI-H661 (lung, NRC), NCI-H1573 (lung, ATCC). NCI-H1563 (lung, ATCC), H358 (lung, collaborator), EBC-1 (lung, Xenotech), H1299 (lung, NRC), NCI-H292 (lung, ATCC), HCC817 (lung, ATCC), NCI-H441 (lung, ATCC), MIA-PaCa-2 (pancreatic, ATCC), BxPC-3 (pancreatic, ATCC), Panc-1 (pancreatic, ATCC), AsPC-1 (pancreatic, ATCC), JEG-3 (placenta, AddexBio), HT-29 (colon, ATCC).
Cells were cultured per vendor instructions and in log-phase growth were detached by brief incubation in 0.05% trypsin, then resuspended in respective culturing media at 20,000 cells/mL (except for ZR-75 cells, which were resuspended at 10,000 cells/mL). 50 μL/well (˜1000 cells/well) were transferred to sterile tissue culture (TC)-treated 384-well plates (ThermoFisher Scientific, Catalogue #164610) and incubated overnight at 37° C. with 5% CO2 to allow the cells to adhere to the plate surface. The next day, in a sterile, V-bottom, 96-well plate, test articles were titrated 1:3 in complete growth medium, creating a 10-point dose response titration with compounds at 3.5-times the desired final concentration. 20 μL from each dilution were added to the 384-well plate containing the seeded cells and these plates were incubated at 37° C. with 5% CO2 for 5 nights. Cell viability was quantified by first incubating with 15 μL/well of CellTiter-Glo® (Promega, Catalogue #G7572) for 30 minutes, then measuring luminescence with a microplate luminometer (BioTek® Synergy™ H1 Microplate Reader). IC50 values were determined by GraphPad Prism (GraphPad Software, San Diego, CA).
The results are presented in Table 7.1 and discussed in Example 7. Table 7.1 presents the results as average pIC50 values. pIC50=−log (IC50), thus, for example, pIC50=9 is equivalent to IC50=1 nM, and pIC50=6 is equivalent to IC50=1 μM.

herring sperm DNA = test: DNA melting temperature by differential scanning calorimetry (DSC); type: binding; conditions: for DNA melt (° C.): DSC, herring sperm DNA, DNA melting temperature = 68° C.; for DNA binding (in words): only DSC data in Table 7.1
Method: Representative compounds prepared as described in Example 2 were assessed in two complementary DNA-binding assays. Increased melting temperature of herring sperm DNA was measured using differential scanning calorimetry (DSC) and binding kinetics were determined by surface plasmon resonance (SPR) using a short DNA hairpin sequence.
DSC experiments were conducted as described in Leng, 2003, Nucleic Acids Res., 31 (21): […], using a Nano DSC (TA Instruments, New Castle, DE) and analyzed using the NanoAnalyze™ software package. Herring sperm DNA solution (Invitrogen 15634017, 10 mg/mL) was diluted to 1 mg/mL (1.4 mM base pair) in BPE buffer (6 mM Na2HPO4, 2 mM NaH2PO4, 1 mM Na4EDTA, pH 7.0). Test articles (20 μL, 10 mM in DMSO) were added and allowed reach equilibrium binding (>3 h), any insoluble material was removed by low-speed centrifugation, then samples were heated from 25 to 110° C. at a scan rate of 1° C./min. Melting curves were plotted and melting temperature was determined using NanoAnalyze™.

[3] = Stability in female mouse plasma; type: in vitro ADME; conditions: female, mouse, plasma, 37° C., 24 h
Method: The stability of exemplary compounds of general Formula I in mouse plasma was evaluated as follows.
Compounds were incubated at 1 μM in duplicate in female mouse plasma, 250 μL final volume, at 37° C. for 24 h. Aliquots were sampled at 0, 15, 30, 60, 120, 240, 480 and 1440 min. Proteins were precipitated by addition of 5 volumes of cold methanol. After centrifugation 10000×g for 10 min, the residual concentration of compound in the supernatant was measured using an appropriate LC-MS/MS method. The measured concentrations were expressed as a function of time through a one-phase decay exponential regression calculated using GraphPad Prism software (GraphPad Software, Inc.) to generate the plasma half-life for each compound.

Structure (SMILES) | HPLC [1] | pIC50 (average) [2] | DNA melt (° C.) (herring sperm DNA) | DNA binding (in words) (herring sperm DNA) | half-life at 1 μM [3]
CC(C)[C@H]1C(=O)NC[C@@H](NC(=O)c2nc3ccccc3cc2O)C(=O)N2CCCC[C@H]2C(=O)NCC(=O)N(C)CC(=O)N2CCCC[C@H]2C(=O)NC[C@@H](NC(=O)c2nc3ccccc3cc2O)C(=O)N2CCCC[C@H]2C(=O)NCC(=O)N(C)CC(=O)N1C [Compound 82] | 16.4 min | 8.0 | 92 °C | – | –
CC(C)[C@H]1C(=O)NC[C@@H](NC(=O)c2nc3ccccc3cc2O)C(=O)N2CCCC[C@H]2C(=O)NCC(=O)N(C)CC(=O)N2CCCCC[C@H]2C(=O)NC[C@@H](NC(=O)c2nc3ccccc3cc2O)C(=O)N2CCCC[C@H]2C(=O)NCC(=O)N(C)CC(=O)N1C [Compound 88, N,N′-((5aS,9R,15aS,24S,28R,34aS)-24-isopropyl-20,23,39-trimethyl-6,10,16,19,22,25,29,35,38,41-decaoxotetracontahydro-1H,12H-azepino[1,2-j]dipyrido[1,2-a:1′,2′-q][1,4,7,10,13,17,20,23,26,29]decaazacyclodotriacontine-9,28-diyl)bis(3-hydroxyquinoline-2-carboxamide)] | 16.4 min | 8.5 | 88 °C | – | –
CC(C)[C@H]1C(=O)NC[C@@H](NC(=O)c2nc3ccccc3cc2O)C(=O)N2CCCC[C@H]2C(=O)NCC(=O)N(C)CC(=O)N(C)[C@@H](C2CCCCC2)C(=O)NC[C@@H](NC(=O)c2nc3ccccc3cc2O)C(=O)N2CCCC[C@H]2C(=O)NCC(=O)N(C)CC(=O)N1C [Compound 97, N,N′-((7R,11S,19aS,26R,30S,38aS)-11-cyclohexyl-30-isopropyl-12,15,31,34-tetramethyl-6,10,13,16,19,25,29,32,35,38-decaoxohexatriacontahydro-2H,6H-dipyrido[1,2-a:1′,2′-q][1,4,7,10,13,17,20,23,26,29]decaazacyclodotriacontine-7,26-diyl)bis(3-hydroxyquinoline-2-carboxamide)] | 18.9 min | 8.4 | 86 °C | – | –
CC(C)[C@H]1COC[C@@H](NC(=O)c2nc3ccccc3cc2O)C(=O)N2CCCC[C@H]2C(=O)NCC(=O)N(C)CC(=O)N(C)[C@@H](C(C)C)COC[C@@H](NC(=O)c2nc3ccccc3cc2O)C(=O)N2CCCC[C@H]2C(=O)NCC(=O)N(C)CC(=O)N1C [Compound 172, N,N′-((7R,11S,19aS,26R,30S,38aS)-11,30-diisopropyl-12,15,31,34-tetramethyl-6,13,16,19,25,32,35,38-octaoxodotriacontahydro-2H,6H,10H,25H-dipyrido[2,1-b1: 2′,1′-l][1,17]dioxa[4,7,10,13,20,23,26,29]octaazacyclodotriacontine-7,26-diyl)bis(3-hydroxyquinoline-2-carboxamide)] | 18.2 min | 7.9 | 91 °C | – | –
CN1CC(=O)N2CCCC[C@H]2COC[C@@H](NC(=O)c2nc3ccccc3cc2O)C(=O)N2CCCC[C@H]2C(=O)NCC(=O)N(C)CC(=O)N2CCCC[C@H]2C(=O)NC[C@@H](NC(=O)c2nc3ccccc3cc2O)C(=O)N2CCCC[C@H]2C(=O)NCC1=O [Compound 187, N,N′-((7R,10aS,22aS,29R,32aS,44aS)-18,40-dimethyl-6,16,19,22,28,32,38,41,44-nonaoxodotetracontahydro-6H-tetrapyrido[2,1-b1: 2′,1′-c: 2″,1″-1:2′″,1′″-s][1]oxa[4,7,10,13,17,20,23,26,29]nonaazacyclodotriacontine-7,29-diyl)bis(3-hydroxyquinoline-2-carboxamide)] | 16.6 min | 8.0 | 94 °C | – | –
CC(C)[C@H]1COC[C@@H](NC(=O)c2nc3ccccc3cc2O)C(=O)N2CCCC[C@H]2C(=O)NCC(=O)N(C)CC(=O)N(C)[C@@H](C(C)C)C(=O)OC[C@@H](NC(=O)c2nc3ccccc3cc2O)C(=O)N2CCCC[C@H]2C(=O)NCC(=O)N(C)CC(=O)N1C [Compound 203, N,N′-((7R,11S,19aS,26R,30S,38aS)-11,30-diisopropyl-12,15,31,34-tetramethyl-6,10,13,16,19,25,32,35,38-nonaoxodotriacontahydro-2H,6H,10H,25H-dipyrido[2,1-b1: 2′,1′-1][1,17]dioxa[4,7,10,13,20,23,26,29]octaazacyclodotriacontine-7,26-diyl)bis(3-hydroxyquinoline-2-carboxamide)] | 20.2 min | 8.5 | 96 °C | – | –
CC(C)[C@H]1C(=O)NC[C@@H](NC(=O)c2nc3ccccc3cc2O)C(=O)N2CCCC[C@H]2C(=O)NCCOCC(=O)N(C)[C@@H](C(C)C)C(=O)NC[C@@H](NC(=O)c2nc3ccccc3cc2O)C(=O)N2CCCC[C@H]2C(=O)NCCOCC(=O)N1C [Compound 404, N,N′-((7R,11S,19aS,26R,30S,38aS)-11,30-diisopropyl-12,31-dimethyl-6,10,13,19,25,29,32,38-octaoxodotriacontahydro-2H,6H,16H,25H-dipyrido[1,2-a1: 1′,2′-k][1,17]dioxa[4,7,11,14,20,23,27,30]octaazacyclodotriacontine-7,26-diyl)bis(3-hydroxyquinoline-2-carboxamide)] | 16.0 min | Inactive | 68^1 °C | did not demonstrate measurable DNA binding | –
O=C(N[C@@H]1CNC(=O)[C@@H]2CCCCN2C(=O)COCCNC(=O)[C@@H]2CCCCN2C(=O)[C@H](NC(=O)c2nc3ccccc3cc2O)CNC(=O)[C@@H]2CCCCN2C(=O)COCCNC(=O)[C@@H]2CCCCN2C1=O)c1nc2ccccc2cc1O [Compound 409, N,N′-((7R,10aS,22aS,29R,32aS,44aS)-6,10,16,22,28,32,38,44-octaoxotetracontahydro-2H,19H-tetrapyrido[1,2-a1: 1′,2′-d: 1″,2″-k: 1′″,2′″-t][1,17]dioxa[4,7,11,14,20,23,27,30]octaazacyclodotriacontine-7,29-diyl)bis(3-hydroxyquinoline-2-carboxamide)] | 16.1 min | inactive | 68^1 °C | did not demonstrate measurable DNA binding | –
CCOC(=O)[C@H](CCc1ccccc1)N[C@@H](C)C(=O)N1CCC[C@H]1C(=O)O [Enalapril, reference compound] | – | – | – | – | 2.7 h
